In PubChem BioAssay AID1919014 (Molecular Pharmacology Branch, DTP, NCI, 2023):

Tested on: NCI-H1341 complex spheroids, percent test/control
Test: Anticancer human tumor NCI-H1341 cell line growth inhibition [AhR];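 also: spheroids exposed to agents for seven days before readout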
Conditions: for IC50: curve of first compound; for viability, T/C: stronger effect = lower value
From the text: Multicellular complex tumor spheroid response to aryl hydrocarbon receptor antagonists in combination with a variety of drugs and investigational agents in selected tumor cell lines
The current study was undertaken to assess response to aryl hydrocarbon receptor antagonists in combination with standard-of-care drugs and investigational agents in solid tumor complex spheroid models. Complex spheroids include a stromal component modeled by human endothelial cells (HUVEC) and fibroblasts modeled by human mesenchymal stem cells (MSCs). The concentration ranges selected for each drug and investigational agent were based upon clinically achievable concentrations if the clinical Cmax of the agent was known.
Compounds. The drugs and investigational agents: BAY 2416964 (NSC825713), GNF351 (NSC835774), CH-223191 (NSC835775), CPI-455 (NSC825282), aza-TdCyd (NSC777586), decitabine (NSC127716), belinostat (NSC758774), entinostat (NSC756642), pevonedistat (NSC761192), tazemetostat (NSC777109), talazoparib (NSC765396), olaparib (NSC753686), selinexor (NSC780203), nedisertib (M3814, NSC802822), bortezomib (NSC756655), venetoclax (NSC766270), doxorubicin (NSC123127), elimusertib (BAY189344, NSC800525), ceralasertib (AZD6738, NSC777638), TAK-243 (NSC785004), alisertib (NSC759677), etoposide (NSC141540), topotecan (NSC609699), eribulin (NSC707389), gemcitabine (NSC613327), carboplatin (NSC241240), cisplatin (NSC119875), and SN-38 (NSC673596) were obtained from the National Cancer Institute (NCI) Developmental Therapeutics Program Chemical Repository (32). The FDA-approved anticancer drug set is available from the Developmental Therapeutics Program at https://dtp.cancer.gov/organization/dscb/obtaining/available plates.htm. […] The stock solutions were prepared in dimethyl sulfoxide (DMSO, Sigma-Aldrich, St. Louis, MO, cat. D2650), except for the platinum compounds which were prepared in saline (Quality Biological, Gaithersburg, MD, cat. 114-055-101), at 800-fold the tested concentration and stored at -70 degrees C prior to their use. All drugs and investigational agents were tested over a range starting from a high concentration at or near the clinical Cmax and decreasing in half-log increments. If the clinical Cmax for an agent had not been determined, the highest concentration tested was 10 microM (Table 1).
Cell Culture. All cells were maintained in an incubator at 37 degrees C and 5% CO2 with 95% humidity. The PDC lines were cultured according to standard operating procedures established by the NCI PDMR (https://pdmr.cancer.gov). Briefly, all PDCs were thawed and cultured in Matrigel-coated flasks prepared with a working solution of 1X Ham's F-12 nutrient mix, without supplementation (Invitrogen, Waltham, MA, cat. 11765054), 100 U/mL penicillin-streptomycin (Invitrogen, cat. 15140122), and 2.5% Matrigel (Corning Inc., Corning, NY, cat. 354248) for the first three passages. All PDCs were cultured in complete DMEM/F-12 media containing advanced DMEM/F-12 (Invitrogen, cat. 12634028), 4.9% defined fetal bovine serum, heat inactivated (HyClone Laboratories Inc., Logan, UT, cat. SH30070.03HI), 389 ng/mL hydrocortisone (Sigma-Aldrich, cat. H4001), 9.7 ng/mL human EGF recombinant protein (Invitrogen, cat. PHG0313), 23.4 microg/mL adenine (Sigma-Aldrich, cat. A2786), 97.3 U/mL penicillin-streptomycin (Invitrogen, cat. 15140122), 1.9 mM L-glutamine (Invitrogen, cat. 25030081), and 9.7 microM Y-27632 dihydrochloride (Tocris Bioscience, Bristol, United Kingdom, cat. 1254). The PDCs were cultured in complete DMEM/F12 media without 10 microM Y-27632 dihydrochloride for at least two passages prior to the screen. The established cell lines NCI-H1341 and […] were cultured in DMEM/F-12, HEPES (Invitrogen, cat. 11330032), 5% defined fetal bovine serum (HyClone Laboratories Inc., cat. SH30070.03), ITS premix universal culture supplement [insulin (5 microg/mL), transferrin (5 microg/mL), and selenious acid (5 ng/mL)] […]

[1] = second compound 0.1 µM, first compound 0.00949 µM
[2] = second compound 0.1 µM, first compound 0.03 µM
[3] = second compound 0.1 µM, first compound 0.0949 µM
[4] = second compound 0.1 µM, first compound 0.3 µM
[5] = second compound 0.1 µM, first compound 0.949 µM
[6] = second compound 0.1 µM, first compound 3 µM
[7] = second compound 0.316 µM, first compound 0.00949 µM
[8] = second compound 0.316 µM, first compound 0.03 µM
[9] = second compound 0.316 µM, first compound 0.0949 µM
[10] = second compound 0.316 µM, first compound 0.3 µM
[11] = second compound 0.316 µM, first compound 0.949 µM
[12] = second compound 0.316 µM, first compound 3 µM
[13] = second compound 1 µM, first compound 0.00949 µM
[14] = second compound 1 µM, first compound 0.03 µM
[15] = second compound 1 µM, first compound 0.0949 µM
[16] = second compound 1 µM, first compound 0.3 µM
[17] = second compound 1 µM, first compound 0.949 µM
[18] = second compound 1 µM, first compound 3 µM
[19] = second compound 3.16 µM, first compound 0.00949 µM
[20] = second compound 3.16 µM, first compound 0.03 µM
[21] = second compound 3.16 µM, first compound 0.0949 µM
[22] = second compound 3.16 µM, first compound 0.3 µM
[23] = second compound 3.16 µM, first compound 0.949 µM
[24] = second compound 3.16 µM, first compound 3 µM
[25] = second compound 10 µM, first compound 0.00949 µM
[26] = second compound 10 µM, first compound 0.03 µM
[27] = second compound 10 µM, first compound 0.0949 µM
[28] = second compound 10 µM, first compound 0.3 µM
[29] = second compound 10 µM, first compound 0.949 µM
[30] = second compound 10 µM, first compound 3 µM

Structure (SMILES) | IC50 (second compound 0.1 µM) [nM] | IC50 (second compound 0.316 µM) [nM] | IC50 (second compound 1 µM) [nM] | IC50 (second compound 3.16 µM) [nM] | IC50 (second compound 10 µM) [nM] | viability, T/C [1] [%] | viability, T/C [2] [%] | viability, T/C [3] [%] | viability, T/C [4] [%] | viability, T/C [5] [%] | viability, T/C [6] [%] | viability, T/C [7] [%] | viability, T/C [8] [%] | viability, T/C [9] [%] | viability, T/C [10] [%] | viability, T/C [11] [%] | viability, T/C [12] [%] | viability, T/C [13] [%] | viability, T/C [14] [%] | viability, T/C [15] [%] | other results
CCN(c1cc(-c2ccc(CN3CCOCC3)cc2)cc(C(=O)NCc2c(C)cc(C)[nH]c2=O)c1C)C1CCOCC1 + CC(CO)NC(=O)c1cc(-c2ccc(Cl)cc2)nn(-c2cnn(C)c2)c1=O | > 3000 | > 3000 | > 3000 | > 3000 | > 3000 | 89.1 | 72.4 | 84 | 68.1 | 75.2 | 57.6 | 81.9 | 77 | 77.9 | 65.8 | 65.7 | 59.7 | 91.7 | 73.6 | 78 | viability, T/C [16]: 63%; viability, T/C [17]: 63.1%; viability, T/C [18]: 62%; viability, T/C [19]: 84.1%; viability, T/C [20]: 82.5%; viability, T/C [21]: 74.9%; viability, T/C [22]: 71.4%; viability, T/C [23]: 61.9%; viability, T/C [24]: 62.4%; viability, T/C [25]: 67.5%; viability, T/C [26]: 79.2%; viability, T/C [27]: 73.3%; viability, T/C [28]: 70.4%; viability, T/C [29]: 65.7%; viability, T/C [30]: 57.4%
O=C(C=Cn1cnc(-c2cc(C(F)(F)F)cc(C(F)(F)F)c2)n1)NNc1cnccn1 + Cc1ccccc1N=Nc1ccc(NC(=O)c2ccnn2C)c(C)c1 | 51.3 | 49.7 | 53.6 | < 9.49 | < 9.49 | 85.4 | 63.4 | 35.2 | 12.9 | 8.66 | 7.84 | 69.5 | 59 | 38.3 | 15.2 | 9.67 | 6.9 | 67.7 | 66.7 | 34.5 | viability, T/C [16]: 15.4%; viability, T/C [17]: 8.51%; viability, T/C [18]: 8.16%; viability, T/C [19]: 47.9%; viability, T/C [20]: 40.7%; viability, T/C [21]: 30.6%; viability, T/C [22]: 13.2%; viability, T/C [23]: 11.4%; viability, T/C [24]: 6.99%; viability, T/C [25]: 40.7%; viability, T/C [26]: 35%; viability, T/C [27]: 24.2%; viability, T/C [28]: 15.6%; viability, T/C [29]: 10.8%; viability, T/C [30]: 6.32%
